O=C1NC(=O)c2ccccc21
solubility (mole fraction) (in acetone, 283.15 K): 0.00783
solubility (mole fraction) (in acetone, 285.65 K): 0.00854
solubility (mole fraction) (in acetone, 288.15 K): 0.00935
solubility (mole fraction) (in acetone, 290.65 K): 0.0101
solubility (mole fraction) (in acetone, 293.15 K): 0.011
solubility (mole fraction) (in acetone, 295.65 K): 0.0119
solubility (mole fraction) (in acetone, 298.15 K): 0.0128
solubility (mole fraction) (in acetone, 300.15 K): 0.0137
solubility (mole fraction) (in acetone, 303.15 K): 0.0149
solubility (mole fraction) (in acetone, 305.65 K): 0.0159
solubility (mole fraction) (in acetone, 308.15 K): 0.017
solubility (mole fraction) (in acetone, 310.65 K): 0.0181
solubility (mole fraction) (in acetone, 313.15 K): 0.0194
solubility (mole fraction) (in acetone, 315.65 K): 0.0209
solubility (mole fraction) (in acetone, 318.15 K): 0.0221
solubility (mole fraction) (in acetonitrile, 283.15 K): 0.00145
solubility (mole fraction) (in acetonitrile, 285.65 K): 0.00161
solubility (mole fraction) (in acetonitrile, 288.15 K): 0.0018
solubility (mole fraction) (in acetonitrile, 290.65 K): 0.00209
solubility (mole fraction) (in acetonitrile, 293.15 K): 0.00238
solubility (mole fraction) (in acetonitrile, 295.65 K): 0.00271
solubility (mole fraction) (in acetonitrile, 298.15 K): 0.00305
solubility (mole fraction) (in acetonitrile, 300.15 K): 0.00335
solubility (mole fraction) (in acetonitrile, 303.15 K): 0.00385
solubility (mole fraction) (in acetonitrile, 305.65 K): 0.0043
solubility (mole fraction) (in acetonitrile, 308.15 K): 0.00472
solubility (mole fraction) (in acetonitrile, 310.65 K): 0.00518
solubility (mole fraction) (in acetonitrile, 313.15 K): 0.00577
solubility (mole fraction) (in acetonitrile, 315.65 K): 0.00631
solubility (mole fraction) (in acetonitrile, 318.15 K): 0.00686
solubility (mole fraction) (in ethanol, 283.15 K): 0.00116
solubility (mole fraction) (in ethanol, 285.65 K): 0.00133
solubility (mole fraction) (in ethanol, 288.15 K): 0.00151
solubility (mole fraction) (in ethanol, 290.65 K): 0.0017
solubility (mole fraction) (in ethanol, 293.15 K): 0.00193
solubility (mole fraction) (in ethanol, 295.65 K): 0.00215
solubility (mole fraction) (in ethanol, 298.15 K): 0.0024
solubility (mole fraction) (in ethanol, 300.15 K): 0.0026
solubility (mole fraction) (in ethanol, 303.15 K): 0.00302
solubility (mole fraction) (in ethanol, 305.65 K): 0.00335
solubility (mole fraction) (in ethanol, 308.15 K): 0.00369
solubility (mole fraction) (in ethanol, 310.65 K): 0.00409
solubility (mole fraction) (in ethanol, 313.15 K): 0.00462
solubility (mole fraction) (in ethanol, 315.65 K): 0.00523
solubility (mole fraction) (in ethanol, 318.15 K): 0.00582
solubility (mole fraction) (in ethyl acetate, 283.15 K): 0.00388
solubility (mole fraction) (in ethyl acetate, 285.65 K): 0.00441
solubility (mole fraction) (in ethyl acetate, 288.15 K): 0.00498
solubility (mole fraction) (in ethyl acetate, 290.65 K): 0.00557
solubility (mole fraction) (in ethyl acetate, 293.15 K): 0.00615
solubility (mole fraction) (in ethyl acetate, 295.65 K): 0.00677
solubility (mole fraction) (in ethyl acetate, 298.15 K): 0.00749
solubility (mole fraction) (in ethyl acetate, 300.15 K): 0.00813
solubility (mole fraction) (in ethyl acetate, 303.15 K): 0.00879
solubility (mole fraction) (in ethyl acetate, 305.65 K): 0.0097
solubility (mole fraction) (in ethyl acetate, 308.15 K): 0.0105
solubility (mole fraction) (in ethyl acetate, 310.65 K): 0.0114
solubility (mole fraction) (in ethyl acetate, 313.15 K): 0.0125
solubility (mole fraction) (in ethyl acetate, 315.65 K): 0.0138
solubility (mole fraction) (in ethyl acetate, 318.15 K): 0.0152
solubility (mole fraction) (in isobutanol, 283.15 K): 0.0014
solubility (mole fraction) (in isobutanol, 285.65 K): 0.00155
solubility (mole fraction) (in isobutanol, 288.15 K): 0.00171
solubility (mole fraction) (in isobutanol, 290.65 K): 0.0019
solubility (mole fraction) (in isobutanol, 293.15 K): 0.00206
solubility (mole fraction) (in isobutanol, 295.65 K): 0.00222
solubility (mole fraction) (in isobutanol, 298.15 K): 0.00242
solubility (mole fraction) (in isobutanol, 300.15 K): 0.0026
solubility (mole fraction) (in isobutanol, 303.15 K): 0.00292
solubility (mole fraction) (in isobutanol, 305.65 K): 0.00315
solubility (mole fraction) (in isobutanol, 308.15 K): 0.0034
solubility (mole fraction) (in isobutanol, 310.65 K): 0.00368
solubility (mole fraction) (in isobutanol, 313.15 K): 0.00398
solubility (mole fraction) (in isobutanol, 315.65 K): 0.00428
solubility (mole fraction) (in isobutanol, 318.15 K): 0.00469
solubility (mole fraction) (in isopropanol, 283.15 K): 0.00159
solubility (mole fraction) (in isopropanol, 285.65 K): 0.00175
solubility (mole fraction) (in isopropanol, 288.15 K): 0.00198
solubility (mole fraction) (in isopropanol, 290.65 K): 0.0022
solubility (mole fraction) (in isopropanol, 293.15 K): 0.00247
solubility (mole fraction) (in isopropanol, 295.65 K): 0.0027
solubility (mole fraction) (in isopropanol, 298.15 K): 0.00298
solubility (mole fraction) (in isopropanol, 300.15 K): 0.0033
solubility (mole fraction) (in isopropanol, 303.15 K): 0.00365
solubility (mole fraction) (in isopropanol, 305.65 K): 0.00402
solubility (mole fraction) (in isopropanol, 308.15 K): 0.00438
solubility (mole fraction) (in isopropanol, 310.65 K): 0.00479
solubility (mole fraction) (in isopropanol, 313.15 K): 0.00523
solubility (mole fraction) (in isopropanol, 315.65 K): 0.00575
solubility (mole fraction) (in isopropanol, 318.15 K): 0.00632
solubility (mole fraction) (in methanol, 283.15 K): 0.00129
solubility (mole fraction) (in methanol, 285.65 K): 0.00142
solubility (mole fraction) (in methanol, 288.15 K): 0.00162
solubility (mole fraction) (in methanol, 290.65 K): 0.00183
solubility (mole fraction) (in methanol, 293.15 K): 0.0021
solubility (mole fraction) (in methanol, 295.65 K): 0.00236
solubility (mole fraction) (in methanol, 298.15 K): 0.0026
solubility (mole fraction) (in methanol, 300.15 K): 0.00288
solubility (mole fraction) (in methanol, 303.15 K): 0.00317
solubility (mole fraction) (in methanol, 305.65 K): 0.00346
solubility (mole fraction) (in methanol, 308.15 K): 0.00373
solubility (mole fraction) (in methanol, 310.65 K): 0.00405
solubility (mole fraction) (in methanol, 313.15 K): 0.00445
solubility (mole fraction) (in methanol, 315.65 K): 0.00483
solubility (mole fraction) (in methanol, 318.15 K): 0.00525
solubility (mole fraction) (in n-butanol, 283.15 K): 0.00166
solubility (mole fraction) (in n-butanol, 285.65 K): 0.00185
solubility (mole fraction) (in n-butanol, 288.15 K): 0.00203
solubility (mole fraction) (in n-butanol, 290.65 K): 0.00221
solubility (mole fraction) (in n-butanol, 293.15 K): 0.00243
solubility (mole fraction) (in n-butanol, 295.65 K): 0.00266
solubility (mole fraction) (in n-butanol, 298.15 K): 0.00285
solubility (mole fraction) (in n-butanol, 300.15 K): 0.00308
solubility (mole fraction) (in n-butanol, 303.15 K): 0.00336
solubility (mole fraction) (in n-butanol, 305.65 K): 0.00362
solubility (mole fraction) (in n-butanol, 308.15 K): 0.00393
solubility (mole fraction) (in n-butanol, 310.65 K): 0.00424
solubility (mole fraction) (in n-butanol, 313.15 K): 0.00456
solubility (mole fraction) (in n-butanol, 315.65 K): 0.0049
solubility (mole fraction) (in n-butanol, 318.15 K): 0.0054
solubility (mole fraction) (in n-propanol, 283.15 K): 0.00156
solubility (mole fraction) (in n-propanol, 285.65 K): 0.00173
solubility (mole fraction) (in n-propanol, 288.15 K): 0.00188
solubility (mole fraction) (in n-propanol, 290.65 K): 0.00203
solubility (mole fraction) (in n-propanol, 293.15 K): 0.00222
solubility (mole fraction) (in n-propanol, 295.65 K): 0.00242
solubility (mole fraction) (in n-propanol, 298.15 K): 0.00263
solubility (mole fraction) (in n-propanol, 300.15 K): 0.00282
solubility (mole fraction) (in n-propanol, 303.15 K): 0.00308
solubility (mole fraction) (in n-propanol, 305.65 K): 0.00339
solubility (mole fraction) (in n-propanol, 308.15 K): 0.00369
solubility (mole fraction) (in n-propanol, 310.65 K): 0.00399
solubility (mole fraction) (in n-propanol, 313.15 K): 0.0043
solubility (mole fraction) (in n-propanol, 315.65 K): 0.00466
solubility (mole fraction) (in n-propanol, 318.15 K): 0.005
solubility (mole fraction) (in toluene, 283.15 K): 0.000253
solubility (mole fraction) (in toluene, 285.65 K): 0.000295
solubility (mole fraction) (in toluene, 288.15 K): 0.000348
solubility (mole fraction) (in toluene, 290.65 K): 0.000401
solubility (mole fraction) (in toluene, 293.15 K): 0.000456
solubility (mole fraction) (in toluene, 295.65 K): 0.000514
solubility (mole fraction) (in toluene, 298.15 K): 0.000577
solubility (mole fraction) (in toluene, 300.15 K): 0.000624
solubility (mole fraction) (in toluene, 303.15 K): 0.000694
solubility (mole fraction) (in toluene, 305.65 K): 0.000756
solubility (mole fraction) (in toluene, 308.15 K): 0.000828
solubility (mole fraction) (in toluene, 310.65 K): 0.0009
solubility (mole fraction) (in toluene, 313.15 K): 0.000969
solubility (mole fraction) (in toluene, 315.65 K): 0.00105
solubility (mole fraction) (in toluene, 318.15 K): 0.00114
